ChEMBL document CHEMBL3217555, “Potent and selective inhibitors of human peptidylglycine -amidating monooxygenase” (Medchemcomm, 2011)
Where a SMILES comes first, the peptide text is derived from it.

Key:
[1] = target: T1, Peptidyl-glycine alpha-amidating monooxygenase (Homo sapiens, UniProt P19021); assay: (§1) Competitive binding affinity to PAM extracted from human H889 cells using (R)-Tyr-(S)-ValGly as substrate after 2 hrs by HPLC analysis
T1 sequence (P19021 whole entry): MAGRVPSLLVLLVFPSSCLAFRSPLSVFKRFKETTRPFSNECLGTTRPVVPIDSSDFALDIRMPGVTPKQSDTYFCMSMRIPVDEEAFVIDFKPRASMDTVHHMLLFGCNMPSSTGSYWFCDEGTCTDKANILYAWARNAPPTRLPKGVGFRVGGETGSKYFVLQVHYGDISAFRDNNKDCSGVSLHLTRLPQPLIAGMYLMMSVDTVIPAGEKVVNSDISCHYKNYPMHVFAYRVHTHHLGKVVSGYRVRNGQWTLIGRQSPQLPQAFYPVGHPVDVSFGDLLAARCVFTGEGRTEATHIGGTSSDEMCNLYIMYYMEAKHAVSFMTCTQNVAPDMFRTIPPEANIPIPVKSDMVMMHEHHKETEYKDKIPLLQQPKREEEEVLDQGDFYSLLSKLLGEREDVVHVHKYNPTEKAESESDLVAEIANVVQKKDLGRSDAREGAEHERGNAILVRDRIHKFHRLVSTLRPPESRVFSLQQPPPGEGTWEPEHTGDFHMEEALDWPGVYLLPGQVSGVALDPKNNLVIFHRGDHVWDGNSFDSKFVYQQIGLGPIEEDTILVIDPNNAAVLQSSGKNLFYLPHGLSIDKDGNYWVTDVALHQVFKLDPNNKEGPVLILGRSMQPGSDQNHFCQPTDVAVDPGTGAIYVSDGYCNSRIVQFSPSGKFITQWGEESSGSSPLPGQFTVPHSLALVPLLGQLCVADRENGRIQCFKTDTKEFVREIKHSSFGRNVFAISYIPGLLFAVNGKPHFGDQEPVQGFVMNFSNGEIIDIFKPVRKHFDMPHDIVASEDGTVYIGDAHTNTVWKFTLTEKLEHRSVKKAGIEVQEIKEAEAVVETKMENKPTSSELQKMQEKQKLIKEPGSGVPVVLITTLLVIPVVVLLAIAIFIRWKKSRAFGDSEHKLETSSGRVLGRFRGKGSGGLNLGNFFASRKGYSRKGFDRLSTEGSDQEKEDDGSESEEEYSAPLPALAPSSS

[2] = (§2) Competitive binding affinity to Xenopus laevis PAM using (R)-Tyr-(S)-ValGly as substrate after 1 hr by HPLC analysis
Xenopus laevis = species on record: Xenopus laevis; assay: as §2
[3] = target: T1, Peptidyl-glycine alpha-amidating monooxygenase; assay: Competitive inhibition of PAM secreted from human PC3 cells by Dixon plot analysis; assay type: cell-based, PC-3
[4] = target: T1, Peptidyl-glycine alpha-amidating monooxygenase; assay: Competitive binding affinity to PAM secreted from human DMS53 cells using (R)-Tyr-(S)-ValGly as substrate after 2 hrs by HPLC analysis; set-up: species or system DMS-53
[5] = target: T1, Peptidyl-glycine alpha-amidating monooxygenase; assay: Competitive binding affinity to PAM extracted from human DMS53 cells using (R)-Tyr-(S)-ValGly as substrate after 2 hrs by HPLC analysis; set-up: species or system DMS-53
[6] = target: T1, Peptidyl-glycine alpha-amidating monooxygenase; assay: Competitive binding affinity to PAM extracted from human PC3 cells using (R)-Tyr-(S)-ValGly as substrate after 2 hrs by HPLC analysis; set-up: species or system PC-3
[7] = target: T1, Peptidyl-glycine alpha-amidating monooxygenase; assay: Competitive binding affinity to PAM secreted from human SW1783 cells using (R)-Tyr-(S)-ValGly as substrate after 2 hrs by HPLC analysis
[8] = target: T2, Peptidyl-glycine alpha-amidating monooxygenase (Homo sapiens) (UniProt P19021); assay: Potency index, ratio of Procalcitonin Km(app) to compound IC50 for PAM extracted from human DMS53 cells; assay type: cell-based; settings: DMS-53
T2 sequence (whole entry): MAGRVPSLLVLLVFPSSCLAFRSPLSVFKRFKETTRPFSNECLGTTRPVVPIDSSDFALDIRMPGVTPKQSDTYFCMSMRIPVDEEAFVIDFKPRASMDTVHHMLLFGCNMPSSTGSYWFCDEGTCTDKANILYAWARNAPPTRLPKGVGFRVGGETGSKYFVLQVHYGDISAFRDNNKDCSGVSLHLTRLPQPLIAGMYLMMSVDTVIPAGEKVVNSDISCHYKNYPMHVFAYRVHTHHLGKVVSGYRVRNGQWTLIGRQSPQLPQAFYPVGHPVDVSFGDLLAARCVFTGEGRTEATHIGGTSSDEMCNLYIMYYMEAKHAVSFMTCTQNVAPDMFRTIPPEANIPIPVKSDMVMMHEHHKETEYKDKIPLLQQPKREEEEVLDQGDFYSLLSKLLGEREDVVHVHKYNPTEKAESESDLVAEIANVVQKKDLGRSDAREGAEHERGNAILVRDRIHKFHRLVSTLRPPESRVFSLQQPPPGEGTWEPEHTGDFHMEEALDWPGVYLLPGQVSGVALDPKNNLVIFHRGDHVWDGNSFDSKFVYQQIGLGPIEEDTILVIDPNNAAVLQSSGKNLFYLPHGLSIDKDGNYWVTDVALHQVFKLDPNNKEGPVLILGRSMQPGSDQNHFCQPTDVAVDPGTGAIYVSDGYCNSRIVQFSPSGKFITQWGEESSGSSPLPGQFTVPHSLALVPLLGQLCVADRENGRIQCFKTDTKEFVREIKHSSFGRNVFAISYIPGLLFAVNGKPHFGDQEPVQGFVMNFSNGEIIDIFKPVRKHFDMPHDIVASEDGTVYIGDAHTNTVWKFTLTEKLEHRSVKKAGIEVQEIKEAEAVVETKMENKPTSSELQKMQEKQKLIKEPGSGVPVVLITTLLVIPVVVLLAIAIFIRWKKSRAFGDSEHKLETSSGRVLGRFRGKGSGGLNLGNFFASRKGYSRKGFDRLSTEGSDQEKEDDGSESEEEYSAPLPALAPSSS

[9] = target: T2, Peptidyl-glycine alpha-amidating monooxygenase (Homo sapiens); assay: Potency index, ratio of Procalcitonin Km(app) to compound IC50 for PAM extracted from human H889 cells; assay type: cell-based
H889 = assay: Selectivity ratio of IC50 for Xenopus laevis PAM to IC50 for PAM extracted from human H889 cells; assay type: cell-based
[10] = substrate: CC(=O)N[C@@H](Cc1ccccc1)C(=O)NCC(=O)O; assay: as §1
[11] = substrate: O=C(O)CNC(=O)Cc1ccccc1; assay: as §1
[12] = target: Peptidyl-glycine alpha-amidating monooxygenase (Homo sapiens) (UniProt P19021); assay: Competitive binding affinity to PAM extracted from human H889 cells using (R)-Tyr-(S)-ValGly as substrate after 2 hrs by HPLC analysis

Molecule: CC(=O)N[C@@H](Cc1ccccc1)C(=O)SCC(=O)O
- IC50 [1]: 45 µM
- IC50 [2]: 25 µM

Molecule: O=C(O)CNC(=O)Cc1ccccc1
- Km (Xenopus laevis): 440 µM

Molecule: CCCCCCCCCCCC(=O)OCC(=O)O
- IC50 [1]: 0.06 µM
- IC50 [2]: 35 µM

Molecule: CC(=O)N[C@@H](Cc1ccccc1)C(=O)OCC(=O)O
- IC50 [2]: > 2000 µM

Molecule: CCCCCCCC(=O)OCC(=O)O
- IC50 [2]: 250 µM

Molecule: O=C(O)CSC(=O)c1ccccc1
- IC50 [2]: 150 µM

Molecule: O=C(O)C/C=C/c1ccccc1
- Ki [3]: 0.096 µM

Molecule: CC(=O)N[C@@H](CC(C)C)C(=O)SCC(=O)O
- IC50 [2]: 260 µM

Molecule: CCCCCCCCCC(=O)NCC(=O)O
- IC50 [4]: 110 µM
- Km (Xenopus laevis): 440 µM
- IC50 [5]: 30 µM

Molecule: CCCCCC(=O)OCC(=O)O
- IC50 [2]: 780 µM

Molecule: O=C(O)COC(=O)c1ccccc1
- IC50 [2]: 250 µM

Molecule: O=C(O)CSC(=O)Cc1ccccc1
- IC50 [1]: 45 µM
- IC50 [2]: 20 µM

Molecule: CSCC[C@H](NC(C)=O)C(=O)SCC(=O)O
- IC50 [2]: 50 µM

Molecule: CCCCCCCCCC(=O)OCC(=O)O
- IC50 [6]: 0.12 µM
- IC50 [7]: 30 µM
- Ratio [8]: 5000
- Ratio [9]: 6000
- IC50 [1]: 0.05 µM
- IC50 [4]: 30 µM
- Ratio IC50 (H889): 800
- IC50 [2]: 40 µM
- IC50 [5]: 0.04 µM

Molecule: CCCCCCCCCCCCCC(=O)OCC(=O)O
- IC50 [2]: 30 µM

Molecule: CC(=O)N[C@@H](Cc1ccccc1)C(=O)NCC(=O)O (Ac-Phe-Gly-OH)
- Km (Xenopus laevis): 170 µM

Molecule: CCCCCCCCCC(=O)SCC(=O)O
- IC50 [2]: 9 µM

Molecule: O=C(O)COC(=O)Cc1ccccc1
- IC50 [1]: 2 µM
- Ratio IC50 (H889): > 250
- IC50 [2]: 510 µM

B1: Peptidyl-glycine alpha-amidating monooxygenase (Homo sapiens), P19021 (protein)
chain: MAGRVPSLLVLLVFPSSCLAFRSPLSVFKRFKETTRPFSNECLGTTRPVVPIDSSDFALDIRMPGVTPKQSDTYFCMSMRIPVDEEAFVIDFKPRASMDTVHHMLLFGCNMPSSTGSYWFCDEGTCTDKANILYAWARNAPPTRLPKGVGFRVGGETGSKYFVLQVHYGDISAFRDNNKDCSGVSLHLTRLPQPLIAGMYLMMSVDTVIPAGEKVVNSDISCHYKNYPMHVFAYRVHTHHLGKVVSGYRVRNGQWTLIGRQSPQLPQAFYPVGHPVDVSFGDLLAARCVFTGEGRTEATHIGGTSSDEMCNLYIMYYMEAKHAVSFMTCTQNVAPDMFRTIPPEANIPIPVKSDMVMMHEHHKETEYKDKIPLLQQPKREEEEVLDQGDFYSLLSKLLGEREDVVHVHKYNPTEKAESESDLVAEIANVVQKKDLGRSDAREGAEHERGNAILVRDRIHKFHRLVSTLRPPESRVFSLQQPPPGEGTWEPEHTGDFHMEEALDWPGVYLLPGQVSGVALDPKNNLVIFHRGDHVWDGNSFDSKFVYQQIGLGPIEEDTILVIDPNNAAVLQSSGKNLFYLPHGLSIDKDGNYWVTDVALHQVFKLDPNNKEGPVLILGRSMQPGSDQNHFCQPTDVAVDPGTGAIYVSDGYCNSRIVQFSPSGKFITQWGEESSGSSPLPGQFTVPHSLALVPLLGQLCVADRENGRIQCFKTDTKEFVREIKHSSFGRNVFAISYIPGLLFAVNGKPHFGDQEPVQGFVMNFSNGEIIDIFKPVRKHFDMPHDIVASEDGTVYIGDAHTNTVWKFTLTEKLEHRSVKKAGIEVQEIKEAEAVVETKMENKPTSSELQKMQEKQKLIKEPGSGVPVVLITTLLVIPVVVLLAIAIFIRWKKSRAFGDSEHKLETSSGRVLGRFRGKGSGGLNLGNFFASRKGYSRKGFDRLSTEGSDQEKEDDGSESEEEYSAPLPALAPSSS
- Km [10]: 15 µM
- Km [11]: 330 µM
- Km [12]: 200 µM
